Laboratory results from US11324798B2, “Materials and methods for treatment of inflammation” (CYTOGEL PHARMA, LLC, priority 2010, dated 2022).
Values joined by “and” are separate entries in the source; they are usually repeats but may differ in a detail not shown here. Equal entries are not always repeated. “Also recorded” adds a separate entry of the source.

What was measured:
[1] = Appearance of CYT-1010 preparations in 20% HPCD; assay type: physicochemical
Procedure: (§1) For the in vivo rat and mouse experiments, 5.5 ml of the 1 mg/ml stock solution of CYT-1010 was prepared freshly every experimental day with 20% HPCD dissolved in sterile distilled water. […] The vehicle was 20% HPCD dissolved in sterile distilled water. Further dilutions of the compound for the smaller administered doses were made with this vehicle, the 500 μg/ml and 100 μg/ml concentrations looked opalescent and the lower concentrations were clear. In rats 0.1 ml/100 g, in mice 0.1 ml/10 g volumes were administered i.v. 10 min before the induction of the inflammation.
Stock solution of the 100 μg/ml concentration of CYT-1010 (5.5 ml) was prepared fresh every experimental day with 20% hydroxypropyl-βcyclodextrin (HPCD) dissolved in sterile distilled water, shaken properly and sonicated. The vehicle was 20% HPCD dissolved in sterile distilled water. Further dilutions of the compound for the smaller administered doses were made with this vehicle. The applied concentrations were filtered through a 0.2 μm sterile teflon filter. […] The lower concentrations looked clear immediately. Non-filtered solutions were administered in the same concentrations in the parallel groups for comparison. Three doses of both the filtered and non-filtered CYT-1010 solutions (1, 10 and 100 μg/kg; 0.1 ml/10 g from the 0.1, 1 and 10 μg/ml solutions) were administered i.v. 5 min before the induction of the inflammation. Animals of the control group were treated with the same volume of the HPCD after or without the same filtration procedure.

[2] = Survival of anaesthetised mice after i.v. CYT-1010 injection; assay type: in vivo
Procedure: In the first series of the in vivo experiments of mice, ketamine (100 mg/kg, i.p.) and xylazine (10 mg/kg, i.m.) were used for anesthesia according to the conventional protocol.

[3] = test system: mustard oil-induced acute neurogenic inflammation in the paw skin of the rat; test: 1% mustard oil-induced plasma protein extravasation in the acutely denervated rat hindpaw skin, Evans blue leakage; assay type: in vivo; settings: for Evans blue leakage in the rat hindpaw skin / Evans blue leakage in the rat hindpaw skin, Mean: 1% mustard oil; for Evans blue leakage in the rat hindpaw skin: individual paws (rats 1-8, left/right)
Procedure: as §1
Both hindlegs of the rats were acutely denervated (the sciatic and the saphenous nerves were cut 30 min before the induction of inflammation) under deep sodium thiopental (50 mg/kg i.p.) anaesthesia to avoid central reflexes. Acute neurogenic inflammation in the dorsal skin of the hindpaws was evoked by topical application of 1% mustard oil (allylisothiocianante) dissolved in paraffin oil. Mustard oil in concentrations below 5% selectively stimulates TRPA1 ion channels on capsaicin-sensitive peptidergic nerves and induces the release of pro-inflammatory sensory neuropeptides such as CGRP and substance P, which cause vasodilation and plasma protein extravasation in the innervated area.
CYT-1010 (1, 10, 100 and 1000 μg/kg; 0.1 ml/100 g from the 1, 10, 100 and 1000 μg/ml solutions) was administered i.v. 5 min before the induction of the inflammation by mustard oil smearing. Rats in the control group were treated with the same volume of the vehicle, 20% hydroxypropyl-β-cyclodextrin (dissolved in sterile distilled water). The experimental protocol is also illustrated in FIG. 2.
40 male Wistar rats (220-260 g) altogether were divided into 5 experimental groups: Group 1: 8 vehicle-treated controls (n=8); Group 2: 1 μg/kg CYT-1010 (n=8); Group 3: 10 μg/kg CYT-1010 (n=8); Group 4: 100 μg/kg CYT-1010 (n=8); and Group 5: 1000 μg/kg CYT-1010 (n=8).
This study was undertaken in blocks with 10 rats per occasion. The whole set of data was obtained during 4 days, and there were rats of each group every day.
Extravasation of plasma albumin was measured by the Evans blue leakage method. Evans blue (50 mg/kg) was injected i.v. and neurogenic inflammation was induced 10 min later. Rats were killed by exsanguination 20 min after mustard oil application. The skin of the hindpaws was removed and the extravasated dye was extracted with formamide for 72 h at room temperature for photometric determination at 620 nm. The amount of the accumulated Evans blue, which quantitatively correlates with the intensity of plasma extravasation, was expressed as dye/g wet tissue (Szolcsányi and Barthó 1981; Helyes et al., 1997, 2001, 2006). Each of these publications is incorporated herein by reference in its entirety.
Results are expressed as the mean±s.e.m. and analyzed for statistical significance with one-way ANOVA followed by Dunnett post-hoc test when the data were compared to the control group. In the rat in vivo studies, multiple comparisons were also made with Bonferroni's modified t-test to compare the effects of the different doses to each other. *p<0.05 was considered to be significant.

NC(Cc1ccc(O)cc1)C(=O)NC1CCCCNC(=O)C(Cc2ccccc2)NC(=O)C(Cc2c[nH]c3ccccc23)NC1=O [CYT-1010, H-Tyr-c-[D-Lys-Trp-Phe]]
Appearance of preparation ([1]; 100 μg/ml in 20% HPCD, directly after preparation (Example 4)): opalescent
Appearance of preparation ([1]; 100 μg/ml in 20% HPCD, on standing at 4° C. (Example 4)): cleared up 1 hour later
Appearance of preparation ([1]; 500 μg/ml and 100 μg/ml in 20% HPCD): opalescent
Appearance of preparation ([1]; 1 mg/ml stock in 20% HPCD in sterile distilled water): milky white micro-suspension
Appearance of preparation ([1]; lower concentrations (below 100 μg/ml) in 20% HPCD): clear
Mortality after i.v. injection ([2]; mice under ketamine (100 mg/kg, i.p.) and xylazine (10 mg/kg, i.m.) anesthesia, presumably respiratory depression): all the 10 mice died promptly
Time to death after i.v. injection ([2]; mice under ketamine/xylazine anesthesia): ≤ 5 min
Survival after i.v. injection ([2]; mice under urethane (1.2 g/kg i.p.) anaesthesia, one death in the 1 μg/kg dose group): all mice survived except one
Inhibition of mustard oil-induced plasma protein extravasation ([3]; 1 μg/kg i.v. (smallest/lowest dose)): ~60%
Evans blue leakage in the rat hindpaw skin ([3]; 1 μg/kg i.v.): 63.04 μg/g wet skin and 42.27 μg/g wet skin and 3.46 μg/g wet skin and 41.04 μg/g wet skin and 31.69 μg/g wet skin and 46.87 μg/g wet skin and 49.44 μg/g wet skin and 47.62 μg/g wet skin and 77.51 μg/g wet skin and 53.72 μg/g wet skin and 48.91 μg/g wet skin and 59.80 μg/g wet skin and 65.26 μg/g wet skin and 48.52 μg/g wet skin and 44.06 μg/g wet skin and 33.73 μg/g wet skin
Evans blue leakage in the rat hindpaw skin, Mean ([3]; 1 μg/kg i.v.): 47.31 μg/g wet skin
Evans blue leakage in the rat hindpaw skin ([3]; 10 μg/kg i.v.): 87.67 μg/g wet skin and 79.89 μg/g wet skin and 77.63 μg/g wet skin and 87.14 μg/g wet skin and 108.49 μg/g wet skin and 73.59 μg/g wet skin and 65.69 μg/g wet skin and 78.05 μg/g wet skin and 94.66 μg/g wet skin and 36.25 μg/g wet skin and 51.07 μg/g wet skin and 41.10 μg/g wet skin and 46.38 μg/g wet skin and 91.18 μg/g wet skin and 61.48 μg/g wet skin and 77.24 μg/g wet skin
Evans blue leakage in the rat hindpaw skin, Mean ([3]; 10 μg/kg i.v.): 72.34 μg/g wet skin
Evans blue leakage in the rat hindpaw skin ([3]; 100 μg/kg i.v.): 71.20 μg/g wet skin and 54.84 μg/g wet skin and 83.92 μg/g wet skin and 49.09 μg/g wet skin and 54.86 μg/g wet skin and 59.74 μg/g wet skin and 88.54 μg/g wet skin and 56.89 μg/g wet skin and 75.00 μg/g wet skin and 56.81 μg/g wet skin and 63.41 μg/g wet skin and 68.93 μg/g wet skin and 49.74 μg/g wet skin and 52.19 μg/g wet skin and 49.21 μg/g wet skin and 80.28 μg/g wet skin
Evans blue leakage in the rat hindpaw skin, Mean ([3]; 100 μg/kg i.v.): 63.42 μg/g wet skin
Evans blue leakage in the rat hindpaw skin ([3]; 1000 μg/kg i.v.): 55.85 μg/g wet skin and 66.07 μg/g wet skin and 85.40 μg/g wet skin and 79.34 μg/g wet skin and 154.03 μg/g wet skin and 74.05 μg/g wet skin and 88.00 μg/g wet skin and 62.92 μg/g wet skin and 55.80 μg/g wet skin and 67.62 μg/g wet skin and 57.47 μg/g wet skin and 37.45 μg/g wet skin and 46.10 μg/g wet skin and 76.56 μg/g wet skin and 54.68 μg/g wet skin and 63.41 μg/g wet skin
Evans blue leakage in the rat hindpaw skin, Mean ([3]; 1000 μg/kg i.v.): 70.30 μg/g wet skin
Effect on mustard oil-induced plasma protein extravasation in the rat skin ([3]; 1, 10, 100 and 1000 μg/kg i.v. pretreatment): significant inhibition; also recorded: significant anti-inflammatory effect; also recorded: significantly decreased
